Data set [1] has as its system ARE of rat glutathione S-transferase Ya subunit gene. The data set is described as follows: Assay for ARE-dependent transcriptional activation activity (luciferase reporter pGL3-ARE in rat H9c2 cells). The data set is classed as cell-based. The conditions noted are these: rat H9c2 cells transfected with pGL3-ARE; about 24 hours incubation with compound; compound-free group = 100%. Here is the method:
Rat H9c2 cells were suspended in Dulbecco's Modified Eagle Medium (10% FBS, D-MEM) supplemented with 5% heat-inactivated fetal calf serum to 7×10^4 cells/ml and a 18 ml aliquot was seeded on a Petri dish for cell culture, followed by incubation in 5% CO2 at 37° C. for about 16 hours. ARE ([…]; SEQ ID NO: 1) of rat glutathione S-transferase Ya subunit gene was incorporated into pGL3-Promoter Vector (manufactured by Promega Corp.) and the resulting luciferase reporter vector pGL3-ARE was transfected to the cells using FuGENE6 (Transfection reagent: manufactured by Roche), followed by additional incubation for about 7 hours. After completion of the incubation, the cells were recovered and suspended in 10% FBS-containing D-MEM to 1×10^5 cells/ml. A 100 μl aliquot was seeded on each well of a 96-well plate, followed by incubation in 5% CO2 at 37° C. for about 17 hours. Next, the cells were washed with D-MEM to remove serum, and D-MEM containing a test compound (compound obtained in EXAMPLE 2, 8, 10, 12, 22 or 23) was added to the cells, followed by incubation in 5% CO2 at 37° C. for about 24 hours. After completion of the incubation, 801 each of Steady-Glo Reagent (manufactured by Promega Corp.) was added to each well. After allowing to stand at room temperature for 40 minutes, fluorescence levels by luciferase were determined using a WALLAC ARVO SX (manufactured by Perkin-Elmer). Taking the emitted luminescence of test compound-free group as 100%, the ARE-dependent transcriptional activation was shown in terms of the concentration of test compound, which caused to emit the luminescence of 200% (EC200: μM).
(In a reporter assay the amount or activity of a reporter protein is the signal.)

A further data set addresses T1, human PPARα (Homo sapiens, UniProt Q07869).
T1 construct: expressed in transfected cells; host or cells: COS-1 cells
T1 sequence (Q07869 1-468): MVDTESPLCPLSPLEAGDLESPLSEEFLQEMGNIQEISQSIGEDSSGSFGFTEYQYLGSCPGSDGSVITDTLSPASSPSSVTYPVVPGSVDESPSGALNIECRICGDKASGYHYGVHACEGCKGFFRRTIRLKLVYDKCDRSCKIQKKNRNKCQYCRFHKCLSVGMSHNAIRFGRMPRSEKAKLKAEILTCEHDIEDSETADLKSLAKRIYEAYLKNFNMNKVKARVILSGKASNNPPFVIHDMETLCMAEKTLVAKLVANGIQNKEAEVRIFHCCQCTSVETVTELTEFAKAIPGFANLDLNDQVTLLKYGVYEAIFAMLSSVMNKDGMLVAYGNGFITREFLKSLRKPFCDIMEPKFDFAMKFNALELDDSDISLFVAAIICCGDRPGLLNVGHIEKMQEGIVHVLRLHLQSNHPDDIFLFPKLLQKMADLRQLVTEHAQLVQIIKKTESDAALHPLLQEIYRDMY
T1 sequence (P19793 1-462 partner): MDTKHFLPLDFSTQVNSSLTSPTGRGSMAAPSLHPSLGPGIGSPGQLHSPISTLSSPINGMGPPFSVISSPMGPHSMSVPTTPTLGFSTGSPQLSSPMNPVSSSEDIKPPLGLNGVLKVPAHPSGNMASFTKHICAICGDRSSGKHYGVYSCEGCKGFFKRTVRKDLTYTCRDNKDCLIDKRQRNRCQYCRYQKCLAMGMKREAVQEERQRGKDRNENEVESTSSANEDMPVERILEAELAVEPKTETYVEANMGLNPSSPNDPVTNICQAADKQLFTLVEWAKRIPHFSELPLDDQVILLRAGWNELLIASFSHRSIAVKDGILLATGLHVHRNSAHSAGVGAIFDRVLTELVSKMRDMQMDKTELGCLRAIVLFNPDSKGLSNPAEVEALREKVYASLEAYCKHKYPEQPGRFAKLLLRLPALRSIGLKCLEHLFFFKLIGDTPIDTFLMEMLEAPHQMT
The data set is described as follows: PPARα assay: PPRE-dependent transcriptional activation activity (luciferase reporter in COS-1 cells transfected with PPARα and RXRα). Type of data set: cell-based. The conditions noted are these: COS-1 cells transfected with PPARα and RXRα expression vectors and pGL3-PPRE4-Tk; about 42 hours incubation with compound; compound-free group = 100%. Here is the method:
COS-1 cells were suspended in Dulbecco's Modified Eagle Medium (10% FBS, D-MEM) supplemented with 10% heat-inactivated fetal calf serum to 1×10^5 cells/ml and a 25 ml aliquot was seeded on a 75 cm^2 cell culture flask, followed by incubation in 5% CO2 at 37° C. for about 15 hours. PPARα expression vector pMCMV-neo-rPPARα and RXRα expression vector pMCMV-neo-rRXRα, in which human PPARα gene and human RXRα gene were inserted into pMCMV-neo (manufactured by Promega Corp.) respectively, and Luciferase reporter vector pGL3-PPRE4-Tk, in which four PPREs (aggacaaaggtca; SEQ ID NO: 2) were inserted into pGL3-Promoter Vector (manufactured by Promega Corp.) in tandem, were transfected to the cells using FuGENE6 (Transfection reagent: manufactured by Roche), and then incubation for about 24 hours. After completion of the incubation, the cells were recovered and suspended in 0.1% bovine serum albumin (Sigma)-containing D-MEM to 5×10^4 cells/ml. A 100 μl aliquot was seeded on each well of a 96-well plate, followed by incubation in 5% CO2 at 37° C. for about 4 hours. Next, D-MEM containing a test compound (compound obtained in EXAMPLE 2, 8, 10 or 12) was added thereto, followed by incubation in 5% CO2 at 37° C. for about 42 hours. After completion of the incubation, a 801 aliquot was added to each well of Steady-Glo Reagent (manufactured by Promega Corp.). After allowing to stand for 30 minutes at room temperature, fluorescence levels by luciferase were determined using a WALLAC ARVO SX (manufactured by Perkin-Elmer). Taking the emitted luminescence of test compound-free group as 100%, the PPRE-dependent transcriptional activation was shown in terms of the concentration of test compound, which caused to emit the luminescence of 200% (EC200: μM).

Usually melting point stands for the temperature, or range, at which the solid turns liquid.

`CCCOC(=O)CCc1cc(S(C)(=O)=O)cc(-c2nc(=O)c3ccc(Cl)cc3s2)n1` [compound 19, Propyl 3-[6-(7-chloro-4-oxo-4H-1,3-benzothiazin-2-yl)-4-(methylsulfonyl)pyridin-2-yl]propanoate] registered a melting point of 235.4 to 235.5 °C.

With `COC(=O)CCc1cc(S(C)(=O)=O)cc(-c2nc(=O)c3ccc(Cl)cc3s2)n1` [EXAMPLE 17, Methyl 3-[6-(7-chloro-4-oxo-4H-1,3-benzothiazin-2-yl)-4-(methylsulfonyl)pyridin-2-yl]propanoate], the melting point lay within 203.4 to 203.6 °C.

As for `CCOC(=O)CCc1cc(S(C)(=O)=O)cc(-c2nc(=O)c3ccc(Cl)cc3s2)n1` [EXAMPLE 13, Ethyl 3-[6-(7-chloro-4-oxo-4H-1,3-benzothiazin-2-yl)-4-(methylsulfonyl)pyridin-2-yl]propanoate], the melting point lay within 240 to 240.2 °C.

Turning to `Cc1oc(=O)oc1COC(=O)CCc1cc(S(C)(=O)=O)cc(-c2nc(=O)c3ccc(Cl)cc3s2)n1` [compound 20, (5-Methyl-2-oxo-1,3-dioxolen-4-yl)methyl 3-[6-(7-chloro-4-oxo-4H-1,3-benzothiazin-2-yl)-4-(methylsulfonyl)pyridin-2-yl]propanoate], the melting point was 183.1 to 183.2 °C.

For `CCN(CC)C(=O)COC(=O)CCc1cc(S(C)(=O)=O)cc(-c2nc(=O)c3ccc(Cl)cc3s2)n1` [EXAMPLE 23, 2-(Diethylamino)-2-oxoethyl 3-[6-(7-chloro-4-oxo-4H-1,3-benzothiazin-2-yl)-4-(methylsulfonyl)pyridin-2-yl]propanoate], the “EC200 (concentration of test compound causing luminescence of 200% of the test compound-free group), ARE-dependent transcriptional activation” value in data set [1] is 0.6 µM.

`CC(C)(C)OC(=O)CCc1cc(S(C)(=O)=O)cc(-c2nc(=O)c3ccc(F)cc3s2)n1` [compound 9, Tert-butyl 3-[6-(7-fluoro-4-oxo-4H-1,3-benzothiazin-2-yl)-4-(methylsulfonyl)pyridin-2-yl]propanoate] had a melting point of 177.6 to 178 °C.

`CCN(CC)CCOC(=O)CCc1cc(S(C)(=O)=O)cc(-c2nc(=O)c3ccc(Cl)cc3s2)n1` [EXAMPLE 22, 2-(Diethylamino)ethyl 3-[6-(7-chloro-4-oxo-4H-1,3-benzothiazin-2-yl)-4-(methylsulfonyl)pyridin-2-yl]propanoate] came in with a melting point of 150.5 to 151.5 °C. The “EC200 (concentration of test compound causing luminescence of 200% of the test compound-free group), ARE-dependent transcriptional activation” value in data set [1] was determined as 0.61 µM.

`CS(=O)(=O)c1cc(CCC(=O)O)nc(-c2nc(=O)c3ccc(Cl)cc3s2)c1` [EXAMPLE 8, 3-[6-(7-Chloro-4-oxo-4H-1,3-benzothiazin-2-yl)-4-(methylsulfonyl)pyridin-2-yl]propanoic acid] showed a melting point of 228.8 to 228.9 °C. Moreover, the “EC200 (concentration of test compound causing luminescence of 200% of the test compound-free group), ARE-dependent transcriptional activation” value in data set [1] worked out at 0.94 µM. At human PPARα, the “EC200 (concentration of test compound causing luminescence of 200% of the test compound-free group), PPRE-dependent transcriptional activation” value was more than 100 µM.

`CC(C)(C)OC(=O)CCc1cc(S(C)(=O)=O)cc(-c2nc(=O)c3ccc(Cl)cc3s2)n1` [compound 7, Tert-butyl 3-[6-(7-chloro-4-oxo-4H-1,3-benzothiazin-2-yl)-4-(methylsulfonyl)pyridin-2-yl]propanoate] showed a melting point of 184.3 to 184.5 °C.

On to `CS(=O)(=O)c1cc(CCC(=O)OCC(O)CO)nc(-c2nc(=O)c3ccc(Cl)cc3s2)c1` (stereo not shown) [compound 21, 2,3-Dihydroxypropyl 3-[6-(7-chloro-4-oxo-4H-1,3-benzothiazin-2-yl)-4-(methylsulfonyl)pyridin-2-yl]propanoate], for which the melting point was in the range of 240 to 241 °C.

With `CS(=O)(=O)c1cc(CCC(=O)O)nc(-c2nc(=O)c3ccc(F)cc3s2)c1` [EXAMPLE 10, 3-[6-(7-fluoro-4-oxo-4H-1,3-benzothiazin-2-yl)-4-(methylsulfonyl)pyridin-2-yl]propanoic acid], the melting point was 235.8 to 236.2 °C. Moreover, the “EC200 (concentration of test compound causing luminescence of 200% of the test compound-free group), ARE-dependent transcriptional activation” value in data set [1] worked out at 1.7 µM. For the same compound, the “EC200 (concentration of test compound causing luminescence of 200% of the test compound-free group), PPRE-dependent transcriptional activation” value on human PPARα is more than 100 µM.

In the case of `CS(=O)(=O)c1cc(CCC(=O)O)nc(-c2nc(=O)c3ccccc3s2)c1` [EXAMPLE 2, 3-[6-(4-Oxo-4H-1,3-benzothiazin-2-yl)-4-(methylsulfonyl)pyridin-2-yl]propanoic acid], in data set [1], the “EC200 (concentration of test compound causing luminescence of 200% of the test compound-free group), ARE-dependent transcriptional activation” value amounted to 1.3 µM. Further, the “EC200 (concentration of test compound causing luminescence of 200% of the test compound-free group), PPRE-dependent transcriptional activation” value at human PPARα is more than 100 µM.

The compound `Cc1ccc2c(=O)nc(-c3cc(S(C)(=O)=O)cc(CCC(=O)O)n3)sc2c1` [EXAMPLE 12, 3-[6-(7-Methyl-4-oxo-4H-1,3-benzothiazin-2-yl)-4-(methylsulfonyl)pyridin-2-yl]propanoic acid] yielded a melting point of 238.9 to 239.1 °C. For the same compound, the “EC200 (concentration of test compound causing luminescence of 200% of the test compound-free group), ARE-dependent transcriptional activation” value in data set [1] came to 1.6 µM. The “EC200 (concentration of test compound causing luminescence of 200% of the test compound-free group), PPRE-dependent transcriptional activation” value at human PPARα is more than 100 µM.

`Cc1ccc2c(=O)nc(-c3cc(S(C)(=O)=O)cc(CCC(=O)OC(C)(C)C)n3)sc2c1` [compound 11, Tert-butyl 3-[6-(7-methyl-4-oxo-4H-1,3-benzothiazin-2-yl)-4-(methylsulfonyl)pyridin-2-yl]propanoate] showed a melting point of 178 to 178.4 °C.

The values are drawn from US20090029975A1, “1,3-BENZOTHIAZINONE DERIVATIVE AND USE THEREOF” (TAKEDA PHARMACEUTICAL COMPANY LIMITED, priority 2005, published 2009).
